What was measured:
[1] = Traction test (muscle relaxant activity / disturbance of muscle tone); conditions: mouse, in vivo, po
Experimental: In this test the influence of the test substances on the muscle tone is evaluated. The test substance is administered orally to mice. After 120 minutes the mice are suspended by their front paws on a thin, horizontally taut wire. The dose at which exactly half the animals fail to also grasp the wire with their hind paws within 5 seconds is regarded as the ED50.
(§1) In columns 5 and 6 of the Table, the quotients which result from dividing the doses impairing muscular coordination or muscle tone by the anxiolytically effective doses are indicated.

[2] = Rotating rod test (muscular coordination impairing activity); conditions: mouse, in vivo, po
Experimental: The ability of muscular coordination is determined in the mouse by the rotating rod test according to Blum (1973).
For this test, only male NMRI mice are used, which can support themselves for five minutes on a rotating rod with a diameter of 4 cm at a rotational speed of 12 rotations per minute.
The test substances are administered orally to the animals one hour before the commencement of the test in the form of a 2% suspension in tylose solution. The animals are each placed twice for a period of 60 seconds onto the rotating rod. Animals which cannot support themselves on the rotating rod for a total of 110 seconds are regarded as having impaired muscular coordination. The dose which brings about an impairment in 50% of the animals is regarded as the ED50.
as §1

[3] = Acute Toxicity (7-day, single application per os); conditions: in vivo, po, single application p.o., NMRI mouse on an empty stomach
Experimental: The acute 7-day toxicity is determined after a single application per os on the white NMRI mouse, on an empty stomach, and the LD50 values are calculated by means of electronic data processing through a probit analysis.

| SMILES | selectivity ratio [1] | selectivity ratio [2] | LD50 at 168 h [3] |
| --- | --- | --- | --- |
| COCC1CN=C(c2ccccc2Cl)c2cc(Br)ccc2N1C (stereo not drawn) | 7.38 | 1.11 | > 1470 mg/kg |
| CN1c2ccc(Br)cc2C(c2ccccc2Cl)=NCC1CO (stereo not drawn) | 38.8 | 1.3 | > 1470 mg/kg |
| COCC1CN=C(c2ccccc2Cl)c2cc(Br)ccc2N1 (stereo not drawn) [Ex 2, 7-Bromo-2-methoxymethyl-5-(2-chlorophenyl)-1H-2,3-dihydro-1,4-benzodiazepin] | 54.2 | 5.38 | 1330 mg/kg |
| OCC1CN=C(c2ccccc2Cl)c2cc(Br)ccc2N1 (stereo not drawn) [Ex 4, 7-Bromo-2-hydroxymethyl-5-(2-chlorophenyl)-1H-2,3-dihydro-1,4-benzodiazepine] | 164 | 8.6 | > 1370 mg/kg |

— US4505908A, “7-Bromo-5-(2-halophenyl)-1H-2,3-dihydro-1,4-benzodiazepine pharmaceuticals” (priority 1981, dated 1985)
